# Test results from the NIST ThermoML archive (doi:10.1016/j.jct.2014.01.002).
# Numbers after ± are expanded uncertainties.
# Experiment: excess molar enthalpy (molar enthalpy of mixing); xn = mol fraction of the nth substance listed
# Conditions: 298.15 K, 99 kPa, Liquid, Calvet calorimetry
compound,measurement,setting,value
C1CCCCC1 [cyclohexane] + CCCCCC,excess molar enthalpy,x1 = 0.0524,0.00813 ± 0.000239 kcal/mol
same,excess molar enthalpy,x1 = 0.1136,0.017 ± 0.000478 kcal/mol
same,excess molar enthalpy,x1 = 0.1603,0.0232 ± 0.000478 kcal/mol
same,excess molar enthalpy,x1 = 0.2014,0.0282 ± 0.000717 kcal/mol
same,excess molar enthalpy,x1 = 0.2485,0.0335 ± 0.000717 kcal/mol
same,excess molar enthalpy,x1 = 0.3022,0.0392 ± 0.000956 kcal/mol
same,excess molar enthalpy,x1 = 0.3647,0.0442 ± 0.000956 kcal/mol
same,excess molar enthalpy,x1 = 0.4379,0.049 ± 0.0012 kcal/mol
same,excess molar enthalpy,x1 = 0.4819,0.0509 ± 0.0012 kcal/mol
same,excess molar enthalpy,x1 = 0.5388,0.0526 ± 0.0012 kcal/mol
same,excess molar enthalpy,x1 = 0.5621,0.0528 ± 0.0012 kcal/mol
same,excess molar enthalpy,x1 = 0.6166,0.0526 ± 0.0012 kcal/mol
same,excess molar enthalpy,x1 = 0.6576,0.0516 ± 0.0012 kcal/mol
same,excess molar enthalpy,x1 = 0.7177,0.0483 ± 0.0012 kcal/mol
same,excess molar enthalpy,x1 = 0.7702,0.0435 ± 0.000956 kcal/mol
same,excess molar enthalpy,x1 = 0.8085,0.0392 ± 0.000956 kcal/mol
same,excess molar enthalpy,x1 = 0.8623,0.0318 ± 0.000717 kcal/mol
same,excess molar enthalpy,x1 = 0.9276,0.0191 ± 0.000478 kcal/mol
CCCCCO [pentan-1-ol] + CCCCCC,excess molar enthalpy,x1 = 0.0241,0.0686 ± 0.00143 kcal/mol
same,excess molar enthalpy,x1 = 0.0501,0.0848 ± 0.00191 kcal/mol
same,excess molar enthalpy,x1 = 0.0573,0.0887 ± 0.00191 kcal/mol
same,excess molar enthalpy,x1 = 0.1085,0.103 ± 0.00215 kcal/mol
same,excess molar enthalpy,x1 = 0.1504,0.112 ± 0.00239 kcal/mol
same,excess molar enthalpy,x1 = 0.1912,0.121 ± 0.00263 kcal/mol
same,excess molar enthalpy,x1 = 0.2341,0.127 ± 0.00287 kcal/mol
same,excess molar enthalpy,x1 = 0.2905,0.129 ± 0.00287 kcal/mol
same,excess molar enthalpy,x1 = 0.3433,0.13 ± 0.00287 kcal/mol
same,excess molar enthalpy,x1 = 0.3934,0.128 ± 0.00287 kcal/mol
same,excess molar enthalpy,x1 = 0.4452,0.125 ± 0.00263 kcal/mol
same,excess molar enthalpy,x1 = 0.5771,0.0982 ± 0.00215 kcal/mol
same,excess molar enthalpy,x1 = 0.5794,0.0985 ± 0.00215 kcal/mol
same,excess molar enthalpy,x1 = 0.6531,0.0798 ± 0.00167 kcal/mol
same,excess molar enthalpy,x1 = 0.6979,0.0672 ± 0.00143 kcal/mol
same,excess molar enthalpy,x1 = 0.7463,0.0535 ± 0.0012 kcal/mol
same,excess molar enthalpy,x1 = 0.803,0.0368 ± 0.000956 kcal/mol
same,excess molar enthalpy,x1 = 0.9021,0.0151 ± 0.000478 kcal/mol
